Laboratory results from the NIST ThermoML archive (doi:10.1016/j.jct.2016.10.047).

Experiments:
[1] = refractive index (other wavelength) (dimensionless); xn = mol fraction of the nth substance listed; conditions: 94 kPa, Liquid, Wavelength=632.8 nm, minimum deviation method, x2 = 0
[2] = refractive index (other wavelength) (dimensionless); conditions: 94 kPa, Liquid, Wavelength=632.8 nm, minimum deviation method

CC(C)O [propan-2-ol] + CCCCCCCC[n+]1ccn(C)c1.F[P-](F)(F)(F)(F)F
[1]
Conditions	refractive index
298.21 K	1.3736
300.17 K	1.3728
302.2 K	1.3719
304.24 K	1.371
306.22 K	1.3701
308.22 K	1.3693
310.24 K	1.3684
312.2 K	1.3675

CCCCCCCC[n+]1ccn(C)c1.F[P-](F)(F)(F)(F)F [1-octyl-3-methylimidazolium hexafluorophosphate]
[2]
Conditions	refractive index
298.19 K	1.4215
300.2 K	1.421
302.19 K	1.4204
304.2 K	1.4199
306.22 K	1.4193
308.24 K	1.4188
310.25 K	1.4183
312.24 K	1.4178

CC(C)O [propan-2-ol]
[2]
Conditions	refractive index
298.21 K	1.3736
300.17 K	1.3728
302.2 K	1.3719
304.24 K	1.371
306.22 K	1.3701
308.22 K	1.3693
310.24 K	1.3684
312.2 K	1.3675
